Results published in US9561231B2 (AbbVie Inc., priority 2012, dated 2017).

Assays:
[1] = biological target: T1, first (BD1: amino acids K57-E168) bromodomain of BRD4 (Homo sapiens, UniProt O60885); experiment: TR-FRET bromodomain binding assay, BRD4 BD1; conditions: TR-FRET assay protocol (A-G, compound concentration range); Ki calculated from IC50, probe Kd and probe concentration; read-out: TR-FRET Binding Ki: BRD4 (BDI_K57-E168)
T1 construct: His-tagged first (BD1: amino acids K57-E168)
Outline: (§1)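 Values are Ki: IC50s from TR-FRET competition with an Alexa647-labeled BET-inhibitor probe were converted using probe Kd and probe concentration. Purified His-tagged bromodomain; pH 6.0 sodium phosphate buffer.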

[2] = biological target: T2, second (BD2: amino acids E352-E168) bromodomain of BRD4 (Homo sapiens, UniProt O60885); experiment: TR-FRET bromodomain binding assay, BRD4 BD2; conditions: TR-FRET assay protocol (A-G, compound concentration range); Ki calculated from IC50, probe Kd and probe concentration; read-out: TR-FRET Binding Ki: BRD4 (BDII_E352-M457)
T2 construct: protocol
Outline: as §1

| Compound | Ki [1] [µM] | Ki [2] [µM] |
| --- | --- | --- |
| CN(C)CCNC(=O)c1cccc(-c2cc(=O)n(C)nc2-c2ccccc2Oc2ccccc2)c1 [Example 186, N-[2-(dimethylamino)ethyl]-3-[1-methyl-6-oxo-3-(2-phenoxyphenyl)-1,6-dihydropyridazin-4-yl]benzamide] | 1.32 | 0.854 |
| Cn1nc(-c2ccccc2Oc2ccccc2)c(-c2ccc(CNc3ccccc3)cc2)cc1=O [Example 187, 2-methyl-6-(2-phenoxyphenyl)-5-{4-[(phenylamino)methyl]phenyl}pyridazin-3(2H)-one] | 4.95 | 2.25 |
| CN1CCN(c2ncc(-c3cc(=O)n(C)nc3-c3ccccc3Oc3ccccc3)cn2)CC1 [Example 188, 2-methyl-5-[2-(4-methylpiperazin-1-yl)pyrimidin-5-yl]-6-(2-phenoxyphenyl)pyridazin-3(2H)-one] | 0.67 | 1.13 |
| COC(=O)Cc1ccc(-c2cc(=O)n(C)nc2-c2ccccc2Oc2ccccc2)cc1 [Example 189, methyl{4-[1-methyl-6-oxo-3-(2-phenoxyphenyl)-1,6-dihydropyridazin-4-yl]phenyl}acetate] | 3.14 | 1.48 |
| CCOc1cncc(-c2cc(=O)n(C)nc2-c2ccccc2Oc2ccccc2)c1 [Example 190, 5-(5-ethoxypyridin-3-yl)-2-methyl-6-(2-phenoxyphenyl)pyridazin-3(2H)-one] | 6.56 | 2.42 |
| CN(C)c1ncc(-c2cc(=O)n(C)nc2-c2ccccc2Oc2ccccc2)cn1 [Example 192, 5-[2-(dimethylamino)pyrimidin-5-yl]-2-methyl-6-(2-phenoxyphenyl)pyridazin-3(2H)-one] | 1.04 | 0.395 |
| Cn1nc(-c2ccccc2Oc2ccccc2)c(-c2cccnc2)cc1=O [Example 195, 2-methyl-6-(2-phenoxyphenyl)-5-(pyridin-3-yl)pyridazin-3(2H)-one] | 0.664 | 0.317 |
| Cc1ccc(-c2cc(=O)n(C)nc2-c2ccccc2Oc2ccccc2)cn1 [Example 196, 2-methyl-5-(6-methylpyridin-3-yl)-6-(2-phenoxyphenyl)pyridazin-3(2H)-one] | 1.08 | 0.67 |
| COc1cccc(-c2cc(=O)n(C)nc2-c2ccccc2Oc2ccccc2)c1 [Example 197, 5-(3-methoxyphenyl)-2-methyl-6-(2-phenoxyphenyl)pyridazin-3(2H)-one] | 1.06 | 0.725 |
| COc1cc(-c2cc(=O)n(C)nc2-c2ccccc2Oc2ccccc2)ccc1F [Example 199, 5-(4-fluoro-3-methoxyphenyl)-2-methyl-6-(2-phenoxyphenyl)pyridazin-3(2H)-one] | > 13 | 5.66 |
| Cn1nc(-c2ccccc2Oc2ccccc2)c(-c2ccnc(N)c2)cc1=O [Example 200, 5-(2-aminopyridin-4-yl)-2-methyl-6-(2-phenoxyphenyl)pyridazin-3(2H)-one] | 0.344 | 0.971 |
| CC(=O)c1cccc(-c2cc(=O)n(C)nc2-c2ccccc2Oc2ccccc2)c1 [Example 201, 5-(3-acetylphenyl)-2-methyl-6-(2-phenoxyphenyl)pyridazin-3(2H)-one] | 2.41 | 1.71 |
| CCNC(=O)c1ccc(-c2cc(=O)n(C)nc2-c2ccccc2Oc2ccccc2)cc1 [Example 202, N-ethyl-4-[1-methyl-6-oxo-3-(2-phenoxyphenyl)-1,6-dihydropyridazin-4-yl]-benzamide] | 0.227 | 0.251 |
| COc1ccc(-c2cc(=O)n(C)nc2-c2ccccc2Oc2ccccc2)cc1F [Example 203, 5-(3-fluoro-4-methoxyphenyl)-2-methyl-6-(2-phenoxyphenyl)pyridazin-3(2H)-one] | 3.51 | 1.52 |
| Cc1c(-c2cc(=O)n(C)nc2-c2ccccc2Oc2ccccc2)cnn1C [Example 204, 5-(1,5-dimethyl-1H-pyrazol-4-yl)-2-methyl-6-(2-phenoxyphenyl)pyridazin-3(2H)-one] | 1.02 | 1.96 |
| Cc1cc(-c2cc(=O)n(C)nc2-c2ccccc2Oc2ccccc2)ccn1 [Example 205, 2-methyl-5-(2-methylpyridin-4-yl)-6-(2-phenoxyphenyl)pyridazin-3(2H)-one] | 2.83 | 2.97 |
| CC(C)Cn1cc(-c2cc(=O)n(C)nc2-c2ccccc2Oc2ccccc2)cn1 [Example 206, 2-methyl-5-[1-(2-methylpropyl)-1H-pyrazol-4-yl]-6-(2-phenoxyphenyl)pyridazin-3(2H)-one] | 0.412 | 0.672 |

Continued, values first:

| Ki [1] [µM] | Ki [2] [µM] | Compound |
| --- | --- | --- |
| 7.02 | 11.8 | Cc1ccncc1-c1cc(=O)n(C)nc1-c1ccccc1Oc1ccccc1 [Example 207, 2-methyl-5-(4-methylpyridin-3-yl)-6-(2-phenoxyphenyl)pyridazin-3(2H)-one] |
| 0.901 | 1.51 | Cn1nc(-c2ccccc2Oc2ccccc2)c(-c2ccc3c(ccn3C)c2)cc1=O [Example 208, 2-methyl-5-(1-methyl-1H-indol-5-yl)-6-(2-phenoxyphenyl)pyridazin-3(2H)-one] |
| > 5.49 | 8.48 | CN(C)c1cccc(-c2cc(=O)n(C)nc2-c2ccccc2Oc2ccccc2)c1 [Example 209, 5-[3-(dimethylamino)phenyl]-2-methyl-6-(2-phenoxyphenyl)pyridazin-3(2H)-one] |
| 9.87 | 15.2 | COc1ccc(F)c(-c2cc(=O)n(C)nc2-c2ccccc2Oc2ccccc2)c1 [Example 210, 5-(2-fluoro-5-methoxyphenyl)-2-methyl-6-(2-phenoxyphenyl)pyridazin-3(2H)-one] |
| 2.15 | 1.52 | Cc1ccc(-c2cc(=O)n(C)nc2-c2ccccc2Oc2ccccc2)o1 [Example 211, 2-methyl-5-(5-methylfuran-2-yl)-6-(2-phenoxyphenyl)pyridazin-3(2H)-one] |
| 0.0898 | 0.117 | CCn1cc(-c2cc(=O)n(C)nc2-c2ccccc2Oc2ccccc2)cn1 [Example 212, 5-(1-ethyl-1H-pyrazol-4-yl)-2-methyl-6-(2-phenoxyphenyl)pyridazin-3(2H)-one] |
| > 13 | 15.2 | COc1cnccc1-c1cc(=O)n(C)nc1-c1ccccc1Oc1ccccc1 [Example 213, 5-(3-methoxypyridin-4-yl)-2-methyl-6-(2-phenoxyphenyl)pyridazin-3(2H)-one] |
| > 13 | 10.4 | Cn1nc(-c2ccccc2Oc2ccccc2)c(-c2cc3ccccc3n2C)cc1=O [Example 214, 2-methyl-5-(1-methyl-1H-indol-2-yl)-6-(2-phenoxyphenyl)pyridazin-3(2H)-one] |
| 0.719 | 0.462 | CN(C)c1cncc(-c2cc(=O)n(C)nc2-c2ccccc2Oc2ccccc2)c1 [Example 216, 5-[5-(dimethylamino)pyridin-3-yl]-2-methyl-6-(2-phenoxyphenyl)pyridazin-3(2H)-one] |
| 6.84 | 1.36 | Cn1nc(-c2ccccc2Cc2ccccc2)ccc1=O [Example 222, 6-(2-benzylphenyl)-2-methylpyridazin-3(2H)-one] |
| 0.324 | 3.27 | Cn1cc(-c2cc(Nc3ccccn3)ccc2Oc2ccccc2)ccc1=O [Example 254, 1-methyl-5-[2-phenoxy-5-(pyridin-2-ylamino)phenyl]pyridin-2(1H)-one] |
| 0.246 | 0.204 | Cn1cc(-c2cc(NS(C)(=O)=O)ccc2Oc2ccc(F)cc2F)c(Cl)cc1=O [Example 269, N-[3-(4-chloro-1-methyl-6-oxo-1,6-dihydropyridin-3-yl)-4-(2,4-difluorophenoxy)phenyl]methanesulfonamide] |
| 0.916 | 0.57 | CNC(=O)c1cc(=O)n(C)cc1-c1cc(NS(C)(=O)=O)ccc1Oc1ccc(F)cc1F [Example 276, 5-{2-(2,4-difluorophenoxy)-5-[(methylsulfonyl)amino]phenyl}-N,1-dimethyl-2-oxo-1,2-dihydropyridine-4-carboxamide] |
| 0.0204 | 0.0997 | Cn1cc(-c2cc(NS(C)(=O)=O)ccc2Oc2ccc(F)cc2F)cc(Cl)c1=O [Example 282, N-[3-(5-chloro-1-methyl-6-oxo-1,6-dihydropyridin-3-yl)-4-(2,4-difluorophenoxy)phenyl]methanesulfonamide] |
| 0.19 | 0.551 | CCS(=O)(=O)Nc1ccc(Oc2ccc(F)cc2F)c(-c2cn(C)c(=O)cc2OCCN(C)C)c1 [Example 288, N-(4-(2,4-difluorophenoxy)-3-(4-(2-(dimethylamino)ethoxy)-1-methyl-6-oxo-1,6-dihydropyridin-3-yl)phenyl)ethanesulfonamide] |
| 0.275 | 0.093 | CCOc1cc(=O)n(C)cc1-c1cc(NC(=O)C2CCN(c3ccccc3)C2=O)ccc1Oc1ccc(F)cc1F (stereo not shown) [Example 295, N-[4-(2,4-difluorophenoxy)-3-(4-ethoxy-1-methyl-6-oxo-1,6-dihydropyridin-3-yl)phenyl]-2-oxo-1-phenylpyrrolidine-3-carboxamide] |
| 0.195 | 0.104 | CCOc1cc(=O)n(C)cc1-c1cc(NC(=O)CC(C)(C)C)ccc1Oc1ccc(F)cc1F [Example 296, N-[4-(2,4-difluorophenoxy)-3-(4-ethoxy-1-methyl-6-oxo-1,6-dihydropyridin-3-yl)phenyl]-3,3-dimethylbutanamide] |
| 0.149 | 0.0352 | CCOc1cc(=O)n(C)cc1-c1cc(NC(=O)C2(c3ccccc3)CC2)ccc1Oc1ccc(F)cc1F [Example 299, N-[4-(2,4-difluorophenoxy)-3-(4-ethoxy-1-methyl-6-oxo-1,6-dihydropyridin-3-yl)phenyl]-1-phenylcyclopropanecarboxamide] |
